# Legend:
# [1] = molecular target: T1, Cx43 hemichannels (Homo sapiens, UniProt P17302); assay: ATP biosensing (hemichannel mediated ATP release); format: cell-based; conditions: hPTECs; TGFβ1 10 ng/mL alone, 48 h; removal of extracellular calcium
# T1 construct: host or cells: HK2 human kidney proximal tubule epithelial cell line
# Description: HK2 cells were cultured in low (5 mM) glucose with/without TGFβ1 (10 ng/ml)±danegaptide (50 or 100 nM) for 48 h. Representative biosensor traces show ATP release following removal of extracellular calcium. […] Peak responses were quantified by comparing against a known concentration of ATP (10 μM) and mean data±SEM plotted (E). Results are representative of 3 separate experiments (n=3; **P<0.01, […] ***P<0.001; one-way ANOVA and Tukey's post-test).
# ATP biosensors (Sarissa Biomedical, Coventry UK) were used in a simultaneous dual-recording ampomeric setup as described previously (Price, G. W.; Chadjichristos, C. E.; Kavvadas, P.; Tang, S. C. W.; Yiu, W. H.; Green, C. R.; Potter, J. A.; Siamantouras, E.; Squires, P. E.; Hills, C. E. Blocking Connexin-43 mediated hemichannel activity protects against early tubular injury in experimental chronic kidney disease. Cell Commun. Signal. 2020, 18). A null biosensor was used to account for non-specific electro-active artefacts and subtracted from the ATP trace. Glycerol (2 mM) was included in all recording solutions to enable ATP detection. HK2 cells were seeded on glass coverslips (10 mm diameter) in low glucose DMEM/F12 (5 mmol/L) for 48 h, prior to an overnight serum-starvation. The cells were then incubated with TGFβ1 (10 ng/ml)±danegaptide (100 nM) for 48 h. The coverslips were transferred to a chamber containing Ca^2+-containing BSS perfused at 6 ml/min (37° C.) and left for 10 min to acclimatise. ATP and null biosensors were bent and lowered so that the electrode laid parallel to the cellular monolayer. Once a stable baseline occurred, perfusion of Ca^2+-free BSS stimulated hemichannel opening. After ATP release, Ca^2+-containing BSS was used to close hemichannels, followed by a calibration solution of ATP ([…]). Recordings were acquired at 4 Hz with a Micro CED (Mark2) interface using Spike (v8.03) software.
# [2] = test system: primary hPTECs; assay: Inflammation antibody array, supernatant (Table 2); format: cell-based, human; conditions: hPTEC supernatant; TGF-β1 10 ng/mL alone, 48 h
# Text: An inflammation antibody array was used to assess regulation of 31 candidate inflammatory proteins in supernatant from hPTEC cells treated with TGFβ1±danegaptide. Results are representative of 3 separate experiments and presented as mean±SEM, n=3 with key significances indicated (*P<0.05, **P<0.01, ***P<0.001; one-way ANOVA and Tukey's post-test).
# A proteome profiler array (Human Cytokine Array Kit from R&D Systems, Oxfordshire, UK) was used, to determine if danegaptide negates TGFβ1-induced changes in expression and secretion of key pro-inflammatory mediators. Primary hPTECs were cultured as described above and treated with TGFβ1 (10 ng/mL)±danegaptide (100 nM) for 48 h.
# T1 sequence (P17302 whole entry): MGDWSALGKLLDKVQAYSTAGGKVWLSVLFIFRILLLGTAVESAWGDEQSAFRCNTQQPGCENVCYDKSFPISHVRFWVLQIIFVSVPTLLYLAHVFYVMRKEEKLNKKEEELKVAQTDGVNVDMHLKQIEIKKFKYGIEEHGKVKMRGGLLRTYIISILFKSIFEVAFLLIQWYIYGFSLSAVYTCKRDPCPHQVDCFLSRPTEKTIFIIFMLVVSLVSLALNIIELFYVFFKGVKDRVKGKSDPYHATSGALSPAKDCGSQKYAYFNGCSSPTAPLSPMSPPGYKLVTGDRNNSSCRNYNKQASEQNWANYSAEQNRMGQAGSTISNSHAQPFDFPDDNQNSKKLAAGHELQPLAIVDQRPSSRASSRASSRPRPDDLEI
substance,measurement,setting,value
TGFβ1: Recombinant hTGFβ1 (Sigma); pro-fibrotic cytokine used to stimulate the cells [reference compound],ATP release,[1],3.60 ± 0.29 µM
same,Angiogenin in supernatant (% compared to control),[2],184 ± 13.2%
same,Cystatin C in supernatant (% compared to control),[2],169 ± 19.7%
same,DPPIV in supernatant (% compared to control),[2],222 ± 24.3%
same,ENA 78 in supernatant (% compared to control),[2],193 ± 17.7%
same,Endoglin in supernatant (% compared to control),[2],101 ± 10.6%
same,FGF7 in supernatant (% compared to control),[2],125 ± 11.3%
same,Flt 3 Ligand in supernatant (% compared to control),[2],179 ± 6.5%
same,G-CSF in supernatant (% compared to control),[2],171 ± 7.3%
same,GM-CSF in supernatant (% compared to control),[2],213 ± 33.3%
same,HGF in supernatant (% compared to control),[2],85 ± 15.8%
same,ICAM-1 in supernatant (% compared to control),[2],191 ± 13.0%
same,IFNg in supernatant (% compared to control),[2],123 ± 11.0%
same,IGFBP-2 in supernatant (% compared to control),[2],259 ± 49.6%
same,IGFBP-3 in supernatant (% compared to control),[2],147 ± 7.0%
same,IL1A in supernatant (% compared to control),[2],109 ± 14.8%
same,IL3 in supernatant (% compared to control),[2],127 ± 30.6%
same,IL8 in supernatant (% compared to control),[2],138 ± 48.4%
same,IL12 p70 in supernatant (% compared to control),[2],74 ± 11.5%
same,IL13 in supernatant (% compared to control),[2],95 ± 16.4%
same,Kallikrein 3 in supernatant (% compared to control),[2],75 ± 5.61%
same,LIF in supernatant (% compared to control),[2],249 ± 32.1%
same,MCP-1 in supernatant (% compared to control),[2],171 ± 14.3%
same,MMP-9 in supernatant (% compared to control),[2],41 ± 8.8%
same,PDGF-AA/BB in supernatant (% compared to control),[2],137 ± 9.7%
same,RAGE in supernatant (% compared to control),[2],170 ± 16.3%
same,RANTES in supernatant (% compared to control),[2],140 ± 8.6%
same,Serpin E1 in supernatant (% compared to control),[2],91 ± 4.7%
same,TFF3 in supernatant (% compared to control),[2],114 ± 22.2%
same,TNF-α in supernatant (% compared to control),[2],176 ± 5.5%
same,Thrombospondin-1 in supernatant (% compared to control),[2],120 ± 24.8%
same,VEGF in supernatant (% compared to control),[2],209 ± 43.3%

# Reference: patent publication US20240108598A1, “Danegaptide for Use in the Treatment or Prevention of a Kidney Disease” (CIANA THERAPEUTICS APS, priority 2021, published 2024)
